Test results reported in patent publication US6756362B2, “Methods and compositions based on inhibition of cell invasion and fibrosis by anionic polymers” (priority 1991, dated 2004).

Experiments:
[1] = tested on: epidural fibrosis at laminectomy site, Lewis inbred rats; test: Epidural fibrosis after lumbar laminectomy in rats, gross evaluation; type: in vivo, rat; design: TOTAL SCORE / TOTAL SCORE 2 WEEKS: scale not given here; details: for inhibition of scar formation (in words): 20 mg/ml, versus buffer control; for TOTAL SCORE: Table 5, agent 20 mg/ml
Procedure: Epidural fibrosis was investigated after lumbar laminectomy in rats. In this model, a laminectomy was performed at the lumbar 3 and 5 vertebrae and then the test agent was applied to the laminectomy site. Subsequently, the laminectomy sites were examined for fibrosis by gross dissection or by histological analysis.
Laminectomies (described below) were performed at lumbar vertebrae L3 and L5 to provide auto-controls within each animal. Segments of GELFOAM® (Upjohn) soaked with experimental or control solutions were inserted into the laminectomy site. The soared GELFOAM® fragments were prepared and coded 24 hours beforehand. The GELFOAM® segments were soaked in solutions of dextran sulfate in calcium/magnesium-free phosphate buffered saline (CMF-PBS), dextran in CMF-PBS, or CMF-PBS alone. In some laminectomy sites, the GELFOAM® fragments were omitted, in order to serve as sham operations. Subsequently, the evaluation by gross dissection was done without knowledge of which solutions had been placed in which laminectomy site. Thus, the experiments were double-blind.
Lewis inbred rats were anesthetized with 4% chloral hydrate (34 mg/100 g body weight). The dorsal skin was incised and the paraspinal muscles were separated from the spinous processes of lumbar vertebrae L2 through L6. The spinous processes of L3 and L5 were removed with a rongeurs; then the vertebral lamina was removed with a micro-rongeurs creating a rectangular laminectomy defect 4×2 mm in size. After bleeding was stopped, a GELFOAM® segment was placed into the laminectomy site according to a randomized protocol. The overlying paraspinal muscles were closed over the site by suturing the superficial fascia together with resorbable 6-0 PDS II (Ethicon). The skin incision was closed with wound clips.
The animals were kept for two weeks prior to gross evaluation. At that time, the rats were anesthetized with 4% chloral hydrate and the wound was reopened by incising, the skin and separating the paraspinal muscles. The quality and quantity of scar tissue above the laminectomy site, the appearance of the GELFOAM® and the extent of new bone growth was evaluated by visual and tactile observation during sharp dissection. After the gross evaluation was complete, the rats were euthanized by anesthesia overdose.
All gross evaluations were made prior to breaking the treatment code, but the observations have been tabulated and presented below according to treatment group.

[2] = tested on: PC12 cells; test: PC12 neurite outgrowth assay; type: cell-based; details: NGF-primed PC12 cells; scored 2 days later
Procedure: (§1) Cell lines. Murine 3T3 fibroblast (NIH), rat C6 glioma (Paganetti et al., 1988, J. Cell Biol. 107:2281) and MCG-28 young immortalized mouse astrocyte (a murine neonatal astrocyte line immortalized with SV-40) were grown in medium composed of Dulbecco's modified Eagle medium (DMEM), 10% fetal calf serum (Gibco Laboratories), and penicillin G/streptomycin (100 units/ml, 100 μg/ml respectively, Gibco Laboratories). For the stripe assay, confluent plates were disaggregated with 0.05% trypsin, 0.53 mM EDTA (Gibco Laboratories) and seeded at 200,000 cells/ml (3 ml/plate). For the cell adhesion assays, confluent cultures were disaggregated with 0.03% EDTA and plated in a 96-well microtiter plate at 20,000-100,000 cells per well. PC12 cells, a pheochromocytoma cell line (Green L. A. & Tischler A. S., 1976, Proc. Natl. Acad. Sci. U.S.A. 73:2424), were grown in medium containing Roswell Park Memorial Institute (RPMI) medium 1640 (Gibco Laboratories), 10% horse serum, 5% fetal calf serum (FCS), and penicillin G/streptomycin (100 units/ml, 100 μg/ml respectively, Gibco Laboratories). The cells were disaggregated with 0.03% EDTA and plated in a 96-well microtiter plate at 3,000 cells per well.
PC12 cells were primed with 20 ng/ml NGF for 8 days, collected with 0.03% EDTA in PBS and plated in precoated 96-well microtiter plates at 3,000 cells/well. The microtiter plates were precoated with poly-L-lysine and blocked with adhesion medium (1% BSA in RPMI) for 20 min prior to addition of cells. The cells were grown in adhesion medium supplemented with 20 ng/ml NGF. The cells were allowed to attach for 2 hr prior to the addition of the test compounds (Akeson and Warren, 1986, Exp. Cell Res. 162:347-362).
PC-12 cells primed with NGF were plated in 96-well plates. Test solutions were added to the wells and the cells were scored 2 days later as (+) if neurites of at least two cell bodies diameter in length were present on the majority of the cells, and (−) if no or only short processes were present. […] The compounds tested included GAGs (heparin, dermatan sulfate, chondroitin sulfate A, keratan sulfate and hyaluronic acid), sulfated carbohydrate polymers (dextran sulfate and pentosan polysulfate), and another polyanionic polymer (e.g., alginic acid).

[3] = Sulfur content; type: physicochemical; details: by weight
[4] = tested on: 3T3 cells; test: Colorimetric cell adhesion assay, 3T3; type: cell-based, mouse; details: 3T3 cells on PLL; 4 hr incubation; FIG. 7
Procedure: as §1
(§2) Microtiter plates were precoated with poly-L-lysine and blocked with 1% BSA in DMEM for 20 min prior to addition of cells. The cells were plated on the precoated 96-well plates and test compounds were added to the culture medium. Following 4-24 hr incubation at 36° C., 5% C02, in a humidified incubator, the tetrazolium salt MTT (3-(4,5-dimethylthazol-2-yl)-2,5-diphenyl tetrazolium bromide) was added. The cultures were incubated for 2 hr to allow mitochondrial succinate dehydrogenase, found in viable cells, to […] the MTT to its formazan blue reaction product. The media was aspirated and the wells were rinsed to remove all detached cells. The formazan blue reaction product in attached cells was solubilized with 0.08 N HCl in isopropanol, and the plates were read in a microtiter plate reader (Dynatech MR4000) at 570 nm with a 630 nm reference filter. The resulting optical density readings are directly related to the number of viable cells in the well (Mosmann, T., 1983, J. Immunol. Methods 65:55-63). The samples were run in 3-6 replicates per point and the SD was less than 5%.
(§3) The adhesion of fibroblasts to PLL-coated microtiter plates in the presence of test compounds in the culture medium was evaluated using an MTT assay as described in Section 8.1.5., supra, and the number of attached cells was expressed as percent of control. The effect of 4 hr incubation in the presence of heparin, pentosan polysulfate, dextran sulfate, and dextran on adhesion of rat meningeal fibroplasts (RMF) and 3T3 cells to PLL is shown in FIG. 7.

[5] = tested on: rat meningeal fibroblasts (RMF); test: Colorimetric cell adhesion assay, RMF; type: cell-based; details: RMF on PLL; 4 hr incubation; FIG. 7
Procedure: Primary Cell Cultures. Primary cultures of rat meningeal fibroblasts (RMF) were obtained from P-3 rat pups. The tissue was removed from the animals and transferred to Leibovitz's L-15 with L-glutamine medium. The tissue was then cut into small pieces with a scalpel blade, enzymatically dissociated with 0.25% trypsin in Ca^2+/Mg^2+ free Hank's balanced salt solution (CMF-HBSS, Gibco Laboratories) for 20 minutes at 37° C., and mechanically triturated. The cells were rinsed with DMEM plus 10% FCS, concentrated by centrifugation and subsequently diluted in DMEM with 10% FCS for plating at 5.0×10^6 cells per 75 cm^2 flask. Adult rat sciatic nerve fibroblasts (RSF) were obtained by explantation of 1 mm sections of adult rat sciatic nerve.
as §2, §3

Sulfur Content [3]	Substance	inhibition of scar formation (in words) [1]	TOTAL SCORE [1]	IC100, minimum concentration causing 100% inhibition of neurite outgrowth [2] [g/mL]	number of attached cells compared to untreated controls [4]	number of attached cells compared to untreated controls [5]
0%	alginate	marginal improvement	7.3 ± 1.9	3.1e-06	–	–
5.6%	chondroitin sulfate A	–	–	0.0005	–	–
6.0%	dermatan sulfate [Dermatan sulfate 90%]	–	–	1.5e-05	–	–
6.4%	keratan sulfate	–	–	–	–	–

More lines, now with the values behind:

Substance	Sulfur Content [3]	inhibition of scar formation (in words) [1]	TOTAL SCORE [1]	IC100, minimum concentration causing 100% inhibition of neurite outgrowth [2] [g/mL]	number of attached cells compared to untreated controls [4]	number of attached cells compared to untreated controls [5]
hyaluronic acid [reference compound]	0.6-0.8%	no ability to inhibit scar formation	9.3 ± 0.5	0.0002	–	–
pentosan polysulfate [reference compound]	16.5%	partial inhibition	5.0 ± 1.0	3.9e-07	decreased	decreased
